Key:
Assay type in all cases: cell-based
ERα [1] = target: T1, ERα (Homo sapiens, UniProt P03372); assay: ERα degradation in MCF-7 cells (Western blot); parameters: host or cells: MCF-7; conditions: 4 hours
T1 sequence (P03372 1-595): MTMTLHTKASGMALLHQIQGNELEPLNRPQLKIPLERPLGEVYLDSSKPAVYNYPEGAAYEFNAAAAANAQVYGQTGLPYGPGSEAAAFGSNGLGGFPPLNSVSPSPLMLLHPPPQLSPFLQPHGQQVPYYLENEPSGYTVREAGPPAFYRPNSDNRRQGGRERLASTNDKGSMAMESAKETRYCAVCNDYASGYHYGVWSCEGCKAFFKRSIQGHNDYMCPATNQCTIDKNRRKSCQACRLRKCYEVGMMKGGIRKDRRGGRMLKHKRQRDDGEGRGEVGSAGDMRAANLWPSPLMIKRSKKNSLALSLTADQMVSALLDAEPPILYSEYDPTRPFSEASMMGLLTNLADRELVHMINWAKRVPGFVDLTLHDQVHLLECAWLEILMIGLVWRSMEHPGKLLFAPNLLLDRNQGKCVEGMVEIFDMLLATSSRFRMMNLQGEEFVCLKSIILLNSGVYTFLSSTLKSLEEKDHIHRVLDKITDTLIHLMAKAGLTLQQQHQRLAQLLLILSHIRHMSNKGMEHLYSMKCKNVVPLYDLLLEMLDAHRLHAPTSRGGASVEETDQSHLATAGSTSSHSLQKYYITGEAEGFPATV
Outline: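 MCF-7 cells treated 4 h at 37 °C with compound at 0.15–1000 nM final. ERα in lysates measured by Western blot (20 µg protein), normalized to an internal reference protein; degradation rate calculated against control.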

ERα [2] = target: T1, ERα; assay: ERα degradation in T-47D cells (Western blot); conditions: 4 hours
Outline: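 T-47D cells at 3×10^5 cells/well were exposed to compound (final 0.15-1000 nM, DMSO) for 4 hours at 37°C and then lysed in RIPA. ERα was measured by Western blot (20 µg protein) with infrared imaging. The degradation rate was calculated from ERα/internal-reference grayscale ratios relative to control.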

T-47D cells = assay: Inhibition of cell proliferation in T-47D cells (CCK-8); conditions: 6 days treatment, CCK-8 cell viability
Outline: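 T-47D cells (3,000/well) in RPMI-1640 with 10% FBS were exposed to a concentration range of PROTAC compounds for 6 days at 37 °C, 5% CO2. Viability read by CCK-8; IC50 fitted from inhibition rate.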

MCF-7 cells = assay: Inhibition of cell proliferation in MCF-7 cells (CCK-8); conditions: MCF-7 cell proliferation, 6 days treatment
Outline: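 MCF-7 cells, 800 per well in DMEM plus 10% FBS, exposed to graded PROTAC concentrations for 6 days at 37 °C, 5% CO2. Viability by CCK-8; IC50 fitted from inhibition rates.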

Compound	Degradation rate of ERα in MCF-7 cells (%) (ERα [1]; 1nM)	Degradation rate of ERα in MCF-7 cells (%) (ERα [1]; 10nM)	Degradation rate of ERα in T-47D cells (%) (ERα [2]; 1nM)	Degradation rate of ERα in T-47D cells (%) (ERα [2]; 10nM)	IC50 (T-47D cells; Homo sapiens, T47D, 144 h)	IC50 (MCF-7 cells; Homo sapiens, MCF7, 144 h)	IC50 (MCF-7 cells)	IC50 (T-47D cells)
Cn1c(=O)n(C2CCC(=O)NC2=O)c2cc3c(cc21)C1(CCN(C2CCN(c4ccc([C@@H]5c6ccc(O)cc6CC[C@@H]5c5ccccc5)cc4)CC2)CC1)CO3 (stereo partly drawn) [ER-P-11, 3-(1'-(1-(4-((1R,2S)-6-hydroxy-2-phenyl-1,2,3,4-tetrahydronaphthalen-1-yl)phenyl)piperidin-4-yl)-1-methyl-2-oxo-1,2-dihydro-3H,6H-spiro[benzofuro[5,6-d]imidazole-7,4'-piperidin]-3-yl)piperidine-2,6-dione]	-18%	-33%	12%	12%	20.8 nM	3540 nM		
O=C1CCC(Nc2ccc3c(c2)OCC2(CCN(C[C@H]4CC[C@@H](OC5CCN(c6ccc([C@@H]7c8ccc(O)cc8CC[C@@H]7c7ccccc7)cc6)CC5)CC4)CC2)C3)C(=O)N1 (stereo partly drawn) [ER-P-41]	13%	15%	17%	21%	37.3 nM	377 nM		
O=C1CCC(Nc2ccc3c(c2)COC[C@H]2CN(CC4CCC(OC5CCN(c6ccc([C@@H]7c8ccc(O)cc8CC[C@@H]7c7ccccc7)cc6)CC5)CC4)CCN32)C(=O)N1 (single isomer, unassigned) [ER-P-51]	5%	1%	14%	12%			1260 nM	74.3 nM
Cn1c(=O)n(C2CCC(=O)NC2=O)c2cc3c(cc21)C1(CCN(CC2CCC4(CC2)CN(c2ccc([C@@H]5c6ccc(O)cc6CC[C@@H]5c5ccccc5)cc2)C4)CC1)CO3 (stereo partly drawn) [ER-P-61]	9%	18%	22%	43%	1.12 nM	28.8 nM		
Cn1c(=O)n(C2CCC(=O)NC2=O)c2ccc3c(c21)OCC31CCN(C2CCC3(CC2)CCN(c2ccc([C@@H]4c5ccc(O)cc5CC[C@@H]4c4ccccc4)cc2)CC3)CC1 (stereo partly drawn) [ER-P-16, 3-(1'-(3-(4-((1R,2S)-6-hydroxy-2-phenyl-1,2,3,4-tetrahydronaphthalen-1-yl)phenyl)-3-azaspiro[5.5]undecan-9-yl)-1-methyl-2-oxo-1,2-dihydro-3H,7H-spiro[benzofuro[6,7-d]imidazole-6,4'-piperidin]-3-yl)piperidine-2,6-dione]	43%	62%	69%	73%	0.62 nM	885 nM		
CN(c1ccc2c(c1)COC[C@H]1CN(CC3CCC(OC4CCN(c5ccc([C@@H]6c7ccc(O)cc7CC[C@@H]6c6ccccc6)cc5)CC4)CC3)CCN21)C1CCC(=O)NC1=O (stereo partly drawn) [ER-P-52, 3-(((R)-3-((4-((1-(4-((1R,2S)-6-hydroxy-2-phenyl-1,2,3,4-tetrahydronaphthalen-1-yl)phenyl)piperidin-4-yl)oxy)cyclohexyl)methyl)-1,2,3,4,4a,5-hexahydro-7H-benzo[e]pyrazino[2,1-c][1,4]oxazepin-9-yl)(methyl)amino)piperidine-2,6-dione]	-2%	7%	6%	6%	248 nM	854 nM		
O=C1CC[C@H](NC(=O)c2ccc3c(c2)OCC[C@H]2CN(CC4CCC(OC5CCN(c6ccc([C@@H]7c8ccc(O)cc8CC[C@@H]7c7ccccc7)cc6)CC5)CC4)CCN32)C(=O)N1 (stereo partly drawn) [ER-P-44, (S)-N-((S)-2,6-dioxopiperidin-3-yl)-3-((4-((1-(4-((1R,2S)-6-hydroxy-2-phenyl-1,2,3,4-tetrahydronaphthalen-1-yl)phenyl)piperidin-4-yl)oxy)cyclohexyl)methyl)-2,3,4,4a,5,6-hexahydro-1H-benzo[b]pyrazino[1,2-d][1,4]oxazepine-9-carboxamide]	10%	39%	-29%	30%	1.26 nM		805 nM	
COc1cc2c(cc1C(=O)N[C@H]1CCC(=O)NC1=O)OCC[C@H]1CN(CC3CCC(OC4CCN(c5ccc([C@@H]6c7ccc(O)cc7CC[C@@H]6c6ccccc6)cc5)CC4)CC3)CCN21 (stereo partly drawn) [ER-P-46, (S)-N-((S)-2,6-dioxopiperidin-3-yl)-3-(((1S,4R)-4-((1-(4-((1R,2S)-6-hydroxy-2-phenyl-1,2,3,4-tetrahydronaphthalen-1-yl)phenyl)piperidin-4-yl)oxy)cyclohexyl)methyl)-10-methoxy-2,3,4,4a,5,6-hexahydro-1H-benzo [b]pyrazino[1,2-d][1,4]oxazepine-9-carboxamide]	6%	36%	35%	55%			731 nM	1.17 nM
Cn1c(=O)n(C2CCC(=O)NC2=O)c2cc3c(cc21)C1(CCN(CC2CCC4(CC2)CCN(c2ccc([C@@H]5c6ccc(O)cc6CC[C@@H]5c5ccccc5)cc2)CC4)CC1)CO3 (stereo partly drawn) [ER-P-62]	14%	39%	13%	52%	2.64 nM	183 nM		

Second part, led by results:

Degradation rate of ERα in MCF-7 cells (%) (ERα [1]; 1nM)	Degradation rate of ERα in MCF-7 cells (%) (ERα [1]; 10nM)	Degradation rate of ERα in T-47D cells (%) (ERα [2]; 1nM)	Degradation rate of ERα in T-47D cells (%) (ERα [2]; 10nM)	IC50 (T-47D cells; Homo sapiens, T47D, 144 h)	IC50 (MCF-7 cells; Homo sapiens, MCF7, 144 h)	IC50 (MCF-7 cells)	Compound	IC50 (T-47D cells)
42%	69%	35%	71%	2.19 nM	12.8 nM		O=C1CCC(N2Cc3c(ccc4c3OCC43CCC4(CCN(C5CCN(c6ccc([C@@H]7c8ccc(O)cc8CC[C@@H]7c7ccccc7)cc6)CC5)CC4)CC3)C2=O)C(=O)N1 (stereo partly drawn) [ER-P-58]	
7%	-11%	0%	1%	25.1 nM	2280 nM		O=C1CCC(Nc2ccc3c(c2)OC[C@@H]2CN(C4CCC5(CC4)CN(c4ccc([C@@H]6c7ccc(O)cc7CC[C@@H]6c6ccccc6)cc4)C5)CCN32)C(=O)N1 (stereo partly drawn) [ER-P-36, 3-(((S)-3-(2-(4-((1R,2S)-6-hydroxy-2-phenyl-1,2,3,4-tetrahydronaphthalen-1-yl)phenyl)-2-azaspiro[3.5]nonan-7-yl)-1,2,3,4,4a,5-hexahydrobenzo[b]pyrazino[1,2-d][1,4]oxazin-8-yl)amino)piperidine-2,6-dione]	
38%	76%	61%	85%	0.0017 nM	0.0017 nM		O=C1CC[C@H](N2Cc3cc(N4CCN(CC5CCN(c6ccc([C@@H]7c8ccc(O)cc8CC[C@@H]7c7ccccc7)cc6)CC5)CC4)ccc3C2=O)C(=O)N1 [ARV-471, reference compound]	
30%	71%	46%	83%	1.96 nM	7.44 nM		O=C1CCC(N2Cc3c(ccc4c3OCC43CCC4(CC3)CN(C3CCC5(CC3)CCN(c3ccc([C@@H]6c7ccc(O)cc7CC[C@@H]6c6ccccc6)cc3)CC5)C4)C2=O)C(=O)N1 (stereo partly drawn) [ER-P-9]	
26%	62%	20%	53%	1.34 nM	< 0.256 nM		C[C@@H]1Cc2cc(O)ccc2C(c2c(F)cc(N3CCC4(CC3)CC(N3CCC5(CC3)CCC3(CC5)COc5c3ccc3c5CN(C5CCC(=O)NC5=O)C3=O)C4)cc2F)N1CC(F)F (stereo partly drawn) [ER-P-27, 3-(1"-(7-(4-((3R)-2-(2,2-difluoroethyl)-6-hydroxy-3-methyl-1,2,3,4-tetrahydroisoquinolin-1-yl)-3,5-difluorophenyl)-7-azaspiro[3.5]nonan-2-yl)-6-oxo-6,8-dihydro-2H,7H-dispiro[furo[2,3-e]isoindole-3,1'-cyclohexane-4',4"-piperidin]-7-yl)piperidine-2,6-dione]	
